Results: PubChem BioAssay AID1963421 (Molecular Pharmacology Branch, DTP, NCI, 2024)

Tested on: 519858-162-T-J1-PDC complex spheroid growth, % test/control
Assay: Anticancer human tumor 519858-162-T-J1-PDC patient-derived colon adenocarcinoma cell line growth inhibition [Asc]
Details: for IC50: curve of first compound; for viability, T/C: stronger effect = lower value
Procedure, shortened: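 Complex solid-tumor spheroids incorporating human endothelial and mesenchymal stem cells received single agents or combinations over half-log dilution ranges anchored to clinical Cmax.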

[1] = second compound 0.00949 µM, first compound 0.0316 µM
[2] = second compound 0.00949 µM, first compound 0.1 µM
[3] = second compound 0.00949 µM, first compound 0.316 µM
[4] = second compound 0.00949 µM, first compound 1 µM
[5] = second compound 0.03 µM, first compound 0.0316 µM
[6] = second compound 0.03 µM, first compound 0.1 µM
[7] = second compound 0.03 µM, first compound 0.316 µM
[8] = second compound 0.03 µM, first compound 1 µM
[9] = second compound 0.0949 µM, first compound 0.0316 µM
[10] = second compound 0.0949 µM, first compound 0.1 µM
[11] = second compound 0.0949 µM, first compound 0.316 µM
[12] = second compound 0.0949 µM, first compound 1 µM
[13] = second compound 0.3 µM, first compound 0.0316 µM
[14] = second compound 0.3 µM, first compound 0.1 µM
[15] = second compound 0.3 µM, first compound 0.316 µM
[16] = second compound 0.3 µM, first compound 1 µM
[17] = second compound 0.949 µM, first compound 0.0316 µM
[18] = second compound 0.949 µM, first compound 0.1 µM
[19] = second compound 0.949 µM, first compound 0.316 µM
[20] = second compound 0.949 µM, first compound 1 µM
[21] = second compound 3 µM, first compound 0.0316 µM
[22] = second compound 3 µM, first compound 0.1 µM
[23] = second compound 3 µM, first compound 0.316 µM
[24] = second compound 3 µM, first compound 1 µM
[25] = second compound 0.00949 µM, first compound 0.00316 µM
[26] = second compound 0.00949 µM, first compound 0.01 µM
[27] = second compound 0.03 µM, first compound 0.00316 µM
[28] = second compound 0.03 µM, first compound 0.01 µM
[29] = second compound 0.0949 µM, first compound 0.00316 µM
[30] = second compound 0.0949 µM, first compound 0.01 µM
[31] = second compound 0.3 µM, first compound 0.00316 µM
[32] = second compound 0.3 µM, first compound 0.01 µM
[33] = second compound 0.949 µM, first compound 0.00316 µM
[34] = second compound 0.949 µM, first compound 0.01 µM
[35] = second compound 3 µM, first compound 0.00316 µM
[36] = second compound 3 µM, first compound 0.01 µM
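Further: seven day drug exposure begun three days after spheroid seeding.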
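Wherever viability, T/C is given: 100% = DMSO vehicle wells and lower values mean less viable spheroid.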

C=CC(=O)N1CCN(c2nc(=O)n(-c3c(C)ccnc3C(C)C)c3nc(-c4c(O)cccc4F)c(F)cc23)C(C)C1 (stereo unspecified) + CCN1C(C(=O)NC23CCC(C(=O)O)(CC2)CC3)C(c2cccc(Cl)c2F)C2(C(=O)Nc3cc(Cl)ccc32)C12CCCCC2
IC50 (second compound 0.00949 µM): > 10 µM
IC50 (second compound 0.03 µM): > 10 µM
IC50 (second compound 0.0949 µM): > 10 µM
IC50 (second compound 0.3 µM): > 10 µM
IC50 (second compound 0.949 µM): > 10 µM
IC50 (second compound 3 µM): > 10 µM
viability, T/C [1]: 147%
viability, T/C [2]: 110%
viability, T/C [3]: 97.8%
viability, T/C [4]: 108%
viability, T/C (second compound 0.00949 µM, first compound 3.16 µM): 99.4%
viability, T/C (second compound 0.00949 µM, first compound 10 µM): 82%
viability, T/C [5]: 112%
viability, T/C [6]: 87.7%
viability, T/C [7]: 115%
viability, T/C [8]: 91.9%
viability, T/C (second compound 0.03 µM, first compound 3.16 µM): 75.2%
viability, T/C (second compound 0.03 µM, first compound 10 µM): 79.7%
viability, T/C [9]: 92.7%
viability, T/C [10]: 106%
viability, T/C [11]: 85.3%
viability, T/C [12]: 99.5%
viability, T/C (second compound 0.0949 µM, first compound 3.16 µM): 89.6%
viability, T/C (second compound 0.0949 µM, first compound 10 µM): 87.8%
viability, T/C [13]: 88.7%
viability, T/C [14]: 89.3%
viability, T/C [15]: 112%
viability, T/C [16]: 90%
viability, T/C (second compound 0.3 µM, first compound 3.16 µM): 106%
viability, T/C (second compound 0.3 µM, first compound 10 µM): 116%
viability, T/C [17]: 114%
viability, T/C [18]: 78.7%
viability, T/C [19]: 111%
viability, T/C [20]: 70.8%
viability, T/C (second compound 0.949 µM, first compound 3.16 µM): 86.1%
viability, T/C (second compound 0.949 µM, first compound 10 µM): 70%
viability, T/C [21]: 86.9%
viability, T/C [22]: 81.7%
viability, T/C [23]: 87%
viability, T/C [24]: 75.1%
viability, T/C (second compound 3 µM, first compound 3.16 µM): 74.9%
viability, T/C (second compound 3 µM, first compound 10 µM): 91.7%

COc1c(OCCCN2CCOCC2)ccc2c3n(c(=NC(=O)c4cnc(N)nc4)nc12)CCN3 + CCN1C(C(=O)NC23CCC(C(=O)O)(CC2)CC3)C(c2cccc(Cl)c2F)C2(C(=O)Nc3cc(Cl)ccc32)C12CCCCC2
IC50 (second compound 0.00949 µM): > 1 µM
IC50 (second compound 0.03 µM): > 1 µM
IC50 (second compound 0.0949 µM): > 1 µM
IC50 (second compound 0.3 µM): 0.749 µM
IC50 (second compound 0.949 µM): 0.301 µM
IC50 (second compound 3 µM): > 1 µM
viability, T/C [25]: 75.5%
viability, T/C [26]: 130%
viability, T/C [1]: 88.6%
viability, T/C [2]: 80.3%
viability, T/C [3]: 70.8%
viability, T/C [4]: 53%
viability, T/C [27]: 95.3%
viability, T/C [28]: 93.1%
viability, T/C [5]: 89.3%
viability, T/C [6]: 80.3%
viability, T/C [7]: 81.6%
viability, T/C [8]: 57.3%
viability, T/C [29]: 86.8%
viability, T/C [30]: 80.3%
viability, T/C [9]: 98.1%
viability, T/C [10]: 77.2%
viability, T/C [11]: 64.2%
viability, T/C [12]: 55.9%
viability, T/C [31]: 89.8%
viability, T/C [32]: 73.2%
viability, T/C [13]: 80.2%
viability, T/C [14]: 84.3%
viability, T/C [15]: 56.2%
viability, T/C [16]: 47.9%
viability, T/C [33]: 69.6%
viability, T/C [34]: 91.1%
viability, T/C [17]: 91%
viability, T/C [18]: 47.5%
viability, T/C [19]: 60.8%
viability, T/C [20]: 32.1%
viability, T/C [35]: 78.4%
viability, T/C [36]: 86%
viability, T/C [21]: 80.6%
viability, T/C [22]: 57.6%
viability, T/C [23]: 60.2%
viability, T/C [24]: 50.4%

NC1CCC(NC2CC2c2ccccc2)CC1 (stereo unspecified) + CCN1C(C(=O)NC23CCC(C(=O)O)(CC2)CC3)C(c2cccc(Cl)c2F)C2(C(=O)Nc3cc(Cl)ccc32)C12CCCCC2
IC50 (second compound 0.00949 µM): > 0.1 µM
IC50 (second compound 0.03 µM): > 0.1 µM
IC50 (second compound 0.0949 µM): > 0.1 µM
IC50 (second compound 0.3 µM): > 0.1 µM
IC50 (second compound 0.949 µM): > 0.1 µM
IC50 (second compound 3 µM): > 0.1 µM
viability, T/C (second compound 0.00949 µM, first compound 0.000316 µM): 101%
viability, T/C (second compound 0.00949 µM, first compound 0.001 µM): 129%
viability, T/C [25]: 130%
viability, T/C [26]: 112%
viability, T/C [1]: 107%
viability, T/C [2]: 92.4%
viability, T/C (second compound 0.03 µM, first compound 0.000316 µM): 146%
viability, T/C (second compound 0.03 µM, first compound 0.001 µM): 149%
viability, T/C [27]: 101%
viability, T/C [28]: 84.1%
viability, T/C [5]: 70.2%
viability, T/C [6]: 110%
viability, T/C (second compound 0.0949 µM, first compound 0.000316 µM): 136%
viability, T/C (second compound 0.0949 µM, first compound 0.001 µM): 127%
viability, T/C [29]: 136%
viability, T/C [30]: 124%
viability, T/C [9]: 128%
viability, T/C [10]: 107%
viability, T/C (second compound 0.3 µM, first compound 0.000316 µM): 101%
viability, T/C (second compound 0.3 µM, first compound 0.001 µM): 82%
viability, T/C [31]: 99.6%
viability, T/C [32]: 95.7%
viability, T/C [13]: 95.4%
viability, T/C [14]: 129%
viability, T/C (second compound 0.949 µM, first compound 0.000316 µM): 97.5%
viability, T/C (second compound 0.949 µM, first compound 0.001 µM): 83.1%
viability, T/C [33]: 117%
viability, T/C [34]: 89.1%
viability, T/C [17]: 89.9%
viability, T/C [18]: 91%
viability, T/C (second compound 3 µM, first compound 0.000316 µM): 66.9%
viability, T/C (second compound 3 µM, first compound 0.001 µM): 86.8%
viability, T/C [35]: 74.4%
viability, T/C [36]: 66.3%
viability, T/C [21]: 74.3%
viability, T/C [22]: 89.2%
